Results reported in patent publication US12083109B2, “Neurokinin antagonists and uses thereof” (California Institute of Technology, priority 2017, dated 2024).
Entries after “also recorded” stand apart in the source; their conditions may differ.

Target: T1, Nk3R (Mus musculus, UniProt P47937)
T1 sequence (P47937 1-452): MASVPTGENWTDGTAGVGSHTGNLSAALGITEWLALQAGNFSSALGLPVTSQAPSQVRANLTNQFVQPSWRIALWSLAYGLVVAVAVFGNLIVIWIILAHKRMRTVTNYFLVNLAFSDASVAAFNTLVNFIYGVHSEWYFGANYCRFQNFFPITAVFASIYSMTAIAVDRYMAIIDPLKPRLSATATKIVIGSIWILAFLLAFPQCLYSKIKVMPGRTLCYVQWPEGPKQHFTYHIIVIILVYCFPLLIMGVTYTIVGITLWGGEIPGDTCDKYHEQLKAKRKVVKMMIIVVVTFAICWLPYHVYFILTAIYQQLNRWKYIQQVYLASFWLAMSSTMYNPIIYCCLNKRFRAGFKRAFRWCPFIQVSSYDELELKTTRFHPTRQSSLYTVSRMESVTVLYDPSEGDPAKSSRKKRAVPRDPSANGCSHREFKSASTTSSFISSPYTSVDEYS
Test: Shock reactivity (footshock) after tone test, osanetant
Type: in vivo
Set-up: from tissue; host or cells: Living mice (wild-type C57Bl6/N males, Charles River)
Procedure: The protocol for tone trace fear conditioning was performed as previously described (Cushman et al., 2014; incorporated by reference in its entirety) using fear conditioning boxes previously described in detail (Haubensak et al., 2010; Kunwar et al., 2015; incorporated by reference in their entirety). Briefly, mice were transported in squads of four on a white cart to a novel behavioral testing room containing 4 sound-attenuating fear-conditioning chambers (Med Associates). This “training context” was comprised of flat grid flooring (wired to a shock generator and scrambler for footshock delivery, Med Associates), houselights, and the presence of an internal fan for background noise. Chambers were sprayed with 70% Simple Green solution on the underlying chamber pan to generate a unique contextual scent and chambers were cleaned with 70% EtOH between squads. Trace fear conditioning consisted of a 3 minute baseline period followed by 3 tone-shock trials consisting of a 20 second tone conditional stimulus (CS; 75 dB, 2800 Hz), a 20 second trace interval and a 2 second footshock unconditional stimulus (US; 0.7 mA). The inter-trial interval (ITI) between trials was 60 seconds. Mice remained in the chambers an additional 60 seconds before being transported back to the vivarium. The following day, mice were transported in fresh cardboard boxes to a novel behavioral testing room consisting of 4 distinct fear-conditioning boxes to test for tone fear. The “test context” consisted of the houselights and fan turned off, uneven grid flooring, a 1% acetic acid scent and a black plastic insert used to generate a triangular roof. Testing was performed identical to training with the exception that shocks were omitted from test trials to allow for behavior assessment to the tone. A single shock was administered in the last minute of testing to assess activity burst responding to the shock. This allowed assessment of reactivity to the shock under our various manipulations performed during testing without disrupting fear acquisition by performing manipulations during training. All experimental manipulations and data shown herein were performed during the test phase of fear conditioning (training data not shown). Training and testing context were counterbalanced across mice. Freezing behavior during the baseline period as well as during each tone presentation (“during”) and trace interval (“post”) were assessed as previously described (Zelikowsky et al., 2014; incorporated by reference in its entirety) using automated near-infrared video tracking equipment and computer software (VideoFreeze, Med Associates). Shock reactivity (motion, arbitrary units) was measured during the 2 second shock US as well as the 3 seconds immediately following.
Mice were administered the Nk3R antagonist osanetant (Axon Medchem, Axon 1533) either systemically or intra-brain region. Osanctant was dissolved in saline with 0.1% Tween 20 (vehicle). […] For microinfusions, guide cannulas were removed from mice and replaced with injector cannulas (Plastics One), which protruded 0.5 mm from the tip of the guide cannula. Injectors were attached to 5 μl Hamilton syringes with PE tubing (Plastics One) and mounted on a microinfusion pump (Harvard Apparatus) for controlled infusion of osanetant (0.3 μl vehicle with 375 ng dose per site injected over 6 minutes). […]

CC(=O)N(C)C1(c2ccccc2)CCN(CCC[C@]2(c3ccc(Cl)c(Cl)c3)CCCN(C(=O)c3ccccc3)C2)CC1 [osanetant, N-(1-{3-[(3R)-1-benzoyl-3-(3,4-dichlorophenyl)piperidin-3-yl]propyl}-4-phenylpiperidin-4-yl)-N-methylacetamide]
SIS-induced increased shock reactivity (SIS mice, osanetant 5 mg/kg i.p. 20 min before test): blocked
SIS-induced increase in shock reactivity (osanetant daily during two-week isolation, tested off-drug): a trend to protection; also recorded: reduced, but not significantly
reactivity to footshock (SIS-enhanced) (osanetant injection into CeA): reduced; also recorded: blocked
responses to the footshock (osanetant microinfusion into DMH): had no effect
shock reactivity (osanetant microinfusion into dBNSTa): no effect
